Measurements published in US20250345350A1, “TREATING PAIN ASSOCIATED WITH CENTRAL SENSITIZATION” (Medicon Pharmaceuticals, Inc., priority 2022, published 2025).
“And” between values parts separate entries of the source, which are not always exact repeats. Identical values can stand only once.

Legend:
[1] = tested on: STZ-induced central sensitization in Sprague-Dawley rats; experiment: PWT (von Frey), streptozotocin rat model of central sensitization (Example 4); type: in vivo
Experimental: Sprague-Dawley rats were fasted for 4-6 hours before being injected intraperitoneally with 45 mg/kg STZ. This was performed for all experimental groups, except the naive group. In order to prevent hypoglycaemic death, rats received 10% sucrose water as the sole water source for the first 48 hours after injection. In order to ensure only those rats considered diabetic (i.e., having non-fasting plasma glucose levels of >250 mg/dL) were included in the study, blood glucose was measured at 72 hours after the STZ injection.
Four weeks after STZ injection, the rats were randomised into treatment groups. This delay between STZ injection and treatment allows the establishment of chronic pain (allodynia) associated with central sensitization. […] 5% lidocaine cream (positive control) was applied only once to both hind paws of the rats 30 minutes before measurement of PWT.
The rats were split into 8 study groups, with those in the experimental groups (1-4) having an average body weight of about 225 g, and those in the control groups (5-8) having an average body weight of about 335 g, as follows: • 1. Group 1: naive rats (n=5) • 2. Group 2: STZ only (n=6) • 3. Group 3: STZ plus vehicle (n=6) • 4. […] Group 5: STZ plus oral vehicle (n=8) • 6. Group 6: STZ plus 0.7% sulindac hydrogel (n=7) • 7. Group 7: STZ plus 5% lidocaine cream (n=8) • 8.

[2] = tested on: NTG-induced migraine in mice; experiment: PWT (von Frey), NTG-induced migraine mouse model, intraperitoneal clinical compounds (Example 15); details: 30 min after single i.p. dose given 30 min after NTG; topiramate 30 mg/kg, sumatriptan 600 μg/kg, propranolol 10 mg/kg, gabapentin 30 mg/kg
Experimental: In line with the earlier Examples, migraine was induced using 0.4 mg of NTG administered sublingually in the form of a finely crushed 0.4 mg NTG tablet (Greenstone Brand).
A single intraperitoneal dose of topiramate (30 mg/kg), sumatriptan (600 μg/kg), propranolol (10 mg/kg), gabapentin (30 mg/kg) or vehicle was administered 30 min after the induction of migraine, at the indicated doses.
Group 1: baseline (i.e, no NTG treatment) • 2. Group 2: vehicle • 3. Group 3: topimarate • 4. Group 4: sumatriptan • 5. Group 5: propanolol • 6. Group 6: gabapentin
Mechanical allodynia was determined using the method of von Frey filaments in line with that performed in the earlier Examples. The PWT test was performed 30 minutes after compound or vehicle control administration. The mechanical threshold, expressed as g, indicates the force of the von Frey filament to which the animal reacted.

[3] = tested on: NTG-induced chronic migraine in mice; experiment: PWT (von Frey), NTG-induced chronic migraine model, oral (Example 16)
Experimental: In particular, mice receive sublingual NTG 0.4 mg in the form of a finely crushed 0.4 mg NTG tablet (Greenstone Brand) every two days, receiving a total of five doses. For control mice, an NTG placebo (Practi-Nitroglycerin Sublingual 0.4 mg Simulated Medication tablet) was administered in the same way.
Group 1: placebo NTG (i.e, no NTG treatment, n=8) • 2. Group 2: NTG (n=8) • 3. Group 3: NTG+vehicle (n=8) • 4. […] Group 5: NTG+sulindac (n=8)
Mechanical allodynia was determined using von Frey filaments in line with that performed in the earlier Examples. The PWT test was performed prior to NTG (or placebo NTG) administration to determine baseline values, as indicated. […] The mechanical threshold, expressed as g, indicates the force of the von Frey filament to which the animal reacted.

[4] = tested on: NTG-induced migraine in C57BL/6J mice; experiment: PWT (von Frey), NTG-induced migraine mouse model, topical (Example 13); details: confirmation of NTG model
Experimental: Specifically, instead of the intraperitoneal injection of NTG, a finely crushed 0.4 mg NTG tablet (Greenstone Brand) was administered sublingually. As a control, a Practi-Nitroglycerin Sublingual 0.4 mg Simulated Medication tablet was used.
For determining mechanical allodynia, pain threshold responses were measured using the well-established method of von Frey filaments in line with that performed in the earlier Examples.
The PWT test, assessing mechanical allodynia, was performed 30 minutes after treatment. The mechanical threshold, expressed as g, indicates the force of the von Frey filament to which the animal reacted.

[5] = tested on: paclitaxel-induced central sensitization in C57/BL mice; experiment: Paw withdrawal threshold (von Frey), paclitaxel model, topical PS (Example 1); details: day 10, about 30 min after last application; PS 8% hydrogel topically to both hind paws 3 times a day for 10 days
Experimental: The paclitaxel was administered into all study groups once a day for 3 days.
The first doses were administered 2 days after the last administration of paclitaxel.
The study groups were as follows: • 1. Group 1: paclitaxel only (n=9) • 2. Group 2: paclitaxel plus vehicle (n=10) • 3.
In order to determine the outcome of the treatment, pain threshold responses were measured using the well-established method of von Frey filaments. […] The results of the PWT test are expressed as force applied (gm). […] The data is expressed as percent change from the respective baseline value.

[6] = tested on: paclitaxel-induced central sensitization in C57/BL/6J mice
Experimental: Regarding the treatment with lidocaine: 5% lidocaine cream (a positive control) was applied once to both hind paws of the mice 30 minutes before measurement of PWT.
Briefly, for mechanical allodynia, pain threshold responses were measured using the well-established method of von Frey filaments in line with that performed in the earlier Examples. The PWT test was performed on day-8 (before the first dose of paclitaxel), the day of starting treatment (day 0, at which central sensitization was fully established) and day 14 (treatment continued until day 15). The mechanical threshold, expressed as g, indicates the force of the von Frey filament to which the animal reacted.

[7] = tested on: paclitaxel-induced CIPN in C57BL/6J mice; experiment: PWT (von Frey), mouse model of CIPN, oral administration (Example 5); type: in vivo; details: day 7; oral gavage three times a day for 7 days, PS 50 mg/kg, sulindac 33 mg/kg
Description: CIPN was induced in mice with chemotherapeutic agents using established protocols (Carozzi et al, 2010; Currie et al, 2019; Eldridge et al, 2020). […] This dosing regimen of paclitaxel produces pain associated with CIPN with time courses that are similar to those of pain after paclitaxel administration in cancer patients.
Group 1: naive mice (i.e. no paclitaxel, n=8) • 2. Group 2: paclitaxel only (n=8) • 3. Group 3: paclitaxel plus vehicle (n=8) • 4. […] Group 5: paclitaxel plus sulindac (n=8)
The PWT test was performed on day 7.

[8] = tested on: paclitaxel-induced pain associated with central sensitization in C57BL/6J mice; experiment: Mechanical allodynia (von Frey), paclitaxel-induced pain, topical PS 8% (Example 2); type: in vivo, mouse
Description: (§1) Food and water were available ad libitum.
(§2) Paw withdrawn, licking or shaking were considered positive responses.

[9] = tested on: paclitaxel-induced central sensitization in C57/BL/6J mice; experiment: Cold allodynia (acetone test), paclitaxel model (Example 3); type: in vivo, mouse; details: after paclitaxel treatment
Experimental: To determine the outcome of treatment, assessment of mechanical allodynia was performed. […] Both methods of assessing allodynia are described in Toma W, et al. Neuropharmacology 2017; 117:305-15. Mechanical and cold allodynia are determined at least one day apart in the same animal.
The acetone test was used. Briefly, acetone was applied onto the plantar surface of each hind paw. The time each mouse spent licking, lifting, and/or shaking the hind paw recorded over 60 seconds was the score for cold allodynia. Measurements were performed on day-8 (before the first paclitaxel injection), the day of starting treatment (day 0) and then on day 15.

[10] = PS and metabolites in proximal and distal half of the sciatic nerve (Example 25); type: in vivo, mouse; details: mouse, in vivo
Experimental: In a separate experiment we studied 8 mice with paclitaxel-induced PN treated with PS 8% ointment 3×/d for 2 wks. Mice were euthanized as above 30 minutes after the last dose of PS. From these mice we harvested both sciatic nerves dividing each into proximal and distal halves, and combined the corresponding halves of every two animals for assay of drug levels.

[11] = tested on: NTG-induced chronic migraine in mice; experiment: PWT (von Frey), NTG-induced chronic migraine model, intraperitoneal topiramate and sumatriptan (Example 17); type: in vivo, mouse
Experimental: The NTG-induced chronic migraine model was used as described previously.
sumatriptan (600 μg/kg), or vehicle was administered.
. Group 1: NTG+vehicle (n=8) • 2. Group 2: NTG+topiramate (n=8) • 3. Group 3: NTG+sumatriptan (n=8)

[12] = tested on: oxaliplatin-induced pain associated with central sensitization in C57BL/6J mice; experiment: Mechanical allodynia (von Frey), oxaliplatin-induced pain, topical PS 8% (Example 2); type: in vivo, mouse; details: day 0, in the two study groups respectively; cumulative 30 mg/kg i.p.
Description: as §1
(§3) Protocol for the Treatment of Established Pain Associated with Central Sensitization with PS
as §2

[13] = tested on: chronic constriction injury-induced peripheral neuropathy in C57BL/6J mice; experiment: PWT (von Frey), chronic constriction injury model of PTPN, topical (Example 7); details: day 14, PS 5% gel or sulindac 0.7% gel on left paw three times a day for 14 days, pregabalin once by oral gavage 1 h before
Experimental: Group 1: ligation only (i.e, surgical control with no treatment, n=5-7) • 2. Group 2: vehicle control (n=5-7) • 3. […] Group 4: 0.7% sulindac (n=5-7) • 5.
Briefly, for determining mechanical allodynia, pain threshold responses were measured using the well-established method of von Frey filaments in line with that performed in the earlier Examples. The PWT test was performed on day 14. The mechanical threshold, expressed as g, indicates the force of the von Frey filament to which the animal reacted.

[14] = tested on: vincristine-induced pain associated with central sensitization in C57BL/6J mice; experiment: Mechanical allodynia (von Frey), vincristine-induced pain, topical PS 8% (Example 2); type: in vivo, mouse
Description: as §1, §3, §2

[15] = Baseline, prior to NTG administration
[16] = Post-compound administration, 30 min after single i.p. dose, topiramate 30 mg/kg, sumatriptan 600 μg/kg

SMILES: CN(N=O)C(=O)N[C@H]1C(O)O[C@H](CO)[C@@H](O)[C@@H]1O (mixture of isomers) [STZ, streptozotocin]
- PWT, gm Mean ± SEM ([1]; week 7, PS 8% hydrogel to both hind paws 3 times a day for 3 weeks from week 4 after STZ): 15.7 ± 0.84 gm

SMILES: NCC1(CC(=O)O)CCCCC1 [Gabapentin, gabapentin]
- PWT, g Mean ± SEM [2]: 1.44 ± 0.25 g

SMILES: O=[N+]([O-])OCC(CO[N+](=O)[O-])O[N+](=O)[O-] [NTG, nitroglycerin]
- PWT, g Mean ± SEM [3, 15]: 1.95 ± 0.18 g
- PWT, g Mean ± SEM ([3]; Day 11, orally once a day for 11 days concurrent with NTG, PS 50 mg/kg, sulindac 33 mg/kg): 0.66 ± 0.11 g
- PWT, g 30 min Mean ± SEM ([4]; 30 min after sublingual NTG 0.4 mg): 0.70 ± 0.12 g
- PWT, g 60 min Mean ± SEM ([4]; 60 min after sublingual NTG 0.4 mg): 0.51 ± 0.05 g

SMILES: CC(=O)O[C@H]1C(=O)[C@@]2(C)[C@H]([C@H](OC(=O)c3ccccc3)[C@]3(O)C[C@H](OC(=O)[C@H](O)[C@@H](NC(=O)c4ccccc4)c4ccccc4)C(C)=C1C3(C)C)[C@]1(OC(C)=O)CO[C@@H]1C[C@@H]2O [Paclitaxel, paclitaxel, reference compound]
- PWT, % baseline Mean ± SEM [5]: 86.75 ± 5.42 % baseline
- mechanical allodynia score, mean±SEM ([6]; day 0, after paclitaxel, central sensitization fully established): 0.55 ± 0.05 g
- PWT, g Mean ± SEM [7]: 0.53 ± 0.03 g
- mechanical allodynia score, mean±SEM ([8]; day 0 (initiation of treatment), paclitaxel-induced pain): 0.78 ± 0.08 g
- mechanical allodynia score, mean±SEM ([8]; day 16, PS 8% ointment 3x/day to hind paws): 0.57 ± 0.05 g
- reduction of mechanical allodynia scores by paclitaxel ([8]; paclitaxel administered over 12 days, cumulative 32 mg/kg i.p.): ~85%
- cold allodynia score (acetone test) [9]: 7.1 ± 0.4 s

SMILES: CC(C)NCC(O)COc1cccc2ccccc12 (stereo not drawn) [Propanolol, propranolol]
- PWT, g Mean ± SEM [2]: 1.37 ± 0.14 g

SMILES: CC1=C(CC(=O)O)c2cc(F)ccc2/C1=C\c1ccc(S(C)(=O)=O)cc1 [Sulindac sulfone, sulindac sulfone]
- Distal half of sciatic nerve, mean ± SEM [10]: 0.9 ± 0.2 µM
- Fold difference (distal vs proximal) [10]: 4.5 fold
- Proximal half of sciatic nerve, μM, mean ± SEM [10]: 0.2 ± 0.08 µM

SMILES: CNS(=O)(=O)Cc1ccc2[nH]cc(CCN(C)C)c2c1 [Sumatriptan, sumatriptan]
- PWT, g Mean ± SEM [2]: 1.34 ± 0.12 g
- PWT, g Mean ± SEM [11, 15]: 1.90 ± 0.06 g
- PWT, g Mean ± SEM ([11]; Day 12 (pre-treatment)): 0.57 ± 0.02 g
- PWT, g Mean ± SEM [11, 16]: 1.33 ± 0.17 g

SMILES: CC1(C)O[C@@H]2[C@@H](CO[C@@]3(COS(N)(=O)=O)OC(C)(C)O[C@@H]23)O1 [Topiramate, topiramate]
- PWT, g Mean ± SEM [2]: 1.40 ± 0.14 g
- PWT, g Mean ± SEM [11, 15]: 2.40 ± 0.24 g
- PWT, g Mean ± SEM ([11]; Day 12 (pre-treatment)): 0.60 ± 0.00 g
- PWT, g Mean ± SEM [11, 16]: 1.76 ± 0.11 g

SMILES: CCN(CC)CC(=O)Nc1c(C)cccc1C [lidocaine]
- PWT, gm Mean ± SEM ([1]; 0.7% sulindac hydrogel 3 times a day for 1 week, 5% lidocaine cream once 30 min before, pregabalin 10 mg/kg orally once 1 h before): 26.0 ± 1.8 gm
- PWT, g Mean ± SEM ([6]; day 14, PS hydrogel 5% or 0.7% sulindac 3 times a day, 5% lidocaine cream once 30 min before, pregabalin 10 mg/kg orally once 1 h before): 1.48 ± 0.12 g

SMILES: O=C1[O][Pt]2([NH][C@@H]3CCCC[C@H]3[NH]2)[O]C1=O [oxaliplatin, reference compound]
- reduction of allodynia score during oxaliplatin administration [12]: 65% and 56%

SMILES: CC(C)C[C@H](CN)CC(=O)O [pregabalin, reference compound]
- PWT, g Mean ± SEM [13]: 1.1 ± 0.10 g
- PWT, g Mean ± SEM ([13]; listed as Pregabalin): 1.1 ± 0.10 g

SMILES: CC[C@]1(O)C[C@H]2CN(CCc3c([nH]c4ccccc34)[C@@](C(=O)OC)(c3cc4c(cc3OC)N(C=O)[C@H]3[C@@](O)(C(=O)OC)[C@H](OC(C)=O)[C@]5(CC)C=CCN6CC[C@]43[C@@H]65)C2)C1 [vincristine]
- mechanical allodynia score, mean±SEM ([14]; day 0): 0.7 ± 0.07 g
- reduction of mechanical allodynia score by vincristine ([14]; day 0 vs day -7, three groups, cumulative 3 mg/kg i.p.): 61%-65%
- mechanical allodynia score, mean±SEM ([14]; day 16): 0.8 ± 0.09 g
